Results from patent US9775902B2, “Compounds and methods for treatment of stroke” (FIBROGEN, INC, priority 2006, dated 2017).
Where two headings read alike, the source gives them in different places.

What was measured:
[1] = tested on: erythropoietin (EPO); assay: EPO expression in Hep3B cells (QUANTIKINE immunoassay of conditioned media); type: cell-based, Human; details: for Fold Increase Over Control: EPO, vs 1% DMSO control; for EPO: conditioned media after overnight incubation with compound
Procedure: The effect of compounds of the present invention on expression of cytoprotective and neuroprotective factors in cells was evaluated as follows. Human cells derived from hepatocarcinoma (Hep3B) tissue (see, e.g., American Type Culture Collection, Manassas Va.) were seeded into 35 mm culture dishes and grown at 37° C., 20% O2, 5% CO2 in Minimal Essential Medium (MEM), Earle's balanced salt solution (Mediatech Inc., Herndon Va.), 2 mM L-glutamine, 0.1 mM non-essential amino acids, 1 mM sodium pyruvate, and 10% FBS. When cell layers reached confluence, the media was replaced with OPTI-MEM media (Invitrogen Life Technologies, Carlsbad Calif.) and cell layers were incubated for approximately 24 hours in 20% O2, 5% CO2 at 37° C. Various compounds of the present invention or 1% DMSO (negative control) were then added to existing media and incubation was continued overnight.
Following incubation, the conditioned media was collected from cell cultures and analyzed for erythropoietin (EPO) expression using a QUANTIKINE immunoassay (R&D Systems, Inc., Minneapolis Minn.) according to the manufacturer's instructions.

[2] = tested on: vascular endothelial growth factor (VEGF); assay: VEGF expression in Kelly neuroblastoma cells; type: cell-based; details: for VEGF: conditioned media after overnight incubation
Procedure: (§1) The effect of compounds of the present invention on expression of cytoprotective and neuroprotective factors in neuroblastoma cells was evaluated as follows. Kelly neuroblastoma cells (see, e.g., DSMZ, cat# ACC-355, Braunschweig Germany) were treated with various compounds of the present invention or 1% DMSO (negative control). Following an overnight incubation, the conditioned media was collected from cell cultures and analyzed for erythropoietin (EPO) and vascular endothelial growth factor (VEGF) expression using a QUANTIKINE immunoassay (R&D Systems, Inc., Minneapolis Minn.) according to the manufacturer's instructions.

[3] = tested on: C57BL/6 mice, permanent occlusion of the MCA; assay: Permanent middle cerebral artery occlusion (pMCAO) in C57BL/6 mice: infarct volume and edema; type: in vivo; details: Mus musculus, iv, 24 h, C57BL/6 mice pMCAO, 20-60 mg/kg i.v., 24 hours after MCA occlusion, read-out: Percent Reduction in Infarct Volume
Procedure: The effect of compounds of the present invention on infarct volume and edema associated with stroke was examined in an animal model of ischemic stroke. In these studies, mice were subjected to permanent occlusion of the middle cerebral artery. Mice were anesthetized intraperitoneally with avertin (0.5 mg/g). Mice were then immobilized in a rodent stereotaxic frame (Kopf Instruments, Tujunga Calif.) and maintained with avertin as needed. The surgical area of the head was swabbed with 70% ethanol and a lateral incision was made between the right orbit and the right ear. […] The distal course of the middle cerebral artery (MCA) was visible through the translucent skull. A small burr-hole craniotomy was performed with a micro-drill (Fine Science Tools, Foster City Calif.). The meninges/dura was removed and the MCA was coagulated by bipolar diathermy. The muscle and soft tissue were replaced and the incision closed with vet-bond adhesive (3M, St. Paul Minn.). These studies were performed in two different mouse models of pMCAO as described below.
In one series of experiments, male C57BL/6 mice (25-35 g) were subjected to permanent occlusion of the MCA as described above. Compounds of the present invention were administered by intravenous injection at various times before or after MCA occlusion (see Table 7). Animals administered compound by intravenous injection received a 6 ml/kg volume of either 5% Dextrose with an equimolar amount of Meglumine (vehicle control) or 20-60 mg/kg of a compound of the present invention in 5% dextrose with an equimolar amount of Meglumine. Body temperature of the animals was maintained by use of a heating pad both during and after surgery. Twenty-four hours after MCA occlusion animals were euthanized with CO2 and their brains removed. After removal, the brain was sliced in 7 coronal sections, each 1 mm thick. The sections were placed rostral side down in a petri dish and stained with 1% Triphenyl tetrazolium chloride for 20 minutes at 37° C. for determination of infarct volume. Brain sections were then digitally photographed and analyzed for changes in infarct volume and extent of edema. Infarct volumes were determined by measuring the infarcted (i.e., non-stained) areas of each brain section and multiplying this value by the section thickness. Extent of edema was determined by the net increase in volume of the ipsilateral cortex compared to that of the contralateral cortex of brain sections.
The effect of compounds of the present invention administered at various times following the onset of stroke was examined further as follows. In these studies, changes in infarct volume were measured using an animal model of stroke when compounds of the present invention were administered from 0 to 8 hours following permanent MCA occlusion. In one series of experiments, male C57BL/6 mice (25-35 g) were subjected to permanent occlusion of the MCA as described above. Compound F was administered to the animals by a single intravenous bolus injection at various times up to 5 hours after MCA occlusion (see Table 8 below). Animals administered compound by intravenous injection received a 6 ml/kg volume of either 5% Dextrose with an equimolar amount of NaOH (vehicle control) or 60 mg/kg of Compound F in 5% dextrose with an equimolar amount of NaOH. Body temperature of the animals was maintained by use of a heating pad both during and after surgery. Changes in infarct volumes were determined as described above.
In another set of experiments, male C57BL/6 mice (25-35 g) were subjected to permanent occlusion of the MCA as described above. Compound F was administered by single intravenous bolus injection at various times up to 8 hours after MCA occlusion (see Table 9 below). Animals administered compound by intravenous injection received a 6 ml/kg volume of either 5% Dextrose with an equimolar amount of Meglumine (vehicle control) or 60 mg/kg of Compound F in 5% dextrose with an equimolar amount of Meglumine. […]

[4] = tested on: VEGF; assay: Plasma VEGF in mice after intravenous injection; type: in vivo, Swiss Webster mice; details: mouse plasma, 20 mg/kg i.v., four hours after injection; for fold induction at 20 mg/kg: iv, 4 h, read-out: VEGF Fold Increase
Procedure: (§2) The effect of compounds of the present invention on expression of cytoprotective and neuroprotective factors in vivo was evaluated as follows. In one series of experiments, male Swiss Webster mice (29-34 g) were administered various compounds of the present invention via intravenous injection into the caudal tail vein. Animals treated by intravenous injection received a 6 ml/kg volume of either 5% Dextrose with an equimolar amount of NaOH or Meglumine (vehicle control) or 20 mg/kg of a compound of the present invention in 5% dextrose with an equimolar amount of NaOH or Meglumine. Four hours after injection, the animals were anesthetized and exsanguinated. Plasma samples were collected in EDTA and heparin coated microtainer tubes. Plasma samples were assayed for erythropoietin and VEGF using commercially-available ELISA kits purchased from R & D Systems (Minneapolis Minn.).

[5] = tested on: erythropoietin (EPO); assay: EPO expression in Kelly neuroblastoma cells; type: cell-based; details: for EPO: conditioned media after overnight incubation
Procedure: as §1

[6] = tested on: erythropoietin; assay: Plasma EPO in mice after intravenous injection; type: in vivo, Swiss Webster mice; details: mouse plasma, 20 mg/kg i.v., four hours after injection; for fold induction at 20 mg/kg: iv, 4 h, read-out: EPO Fold Increase
Procedure: as §2

[7] = tested on: erythropoietin; assay: Plasma EPO in mice after oral gavage; type: in vivo, Swiss Webster mice; details: mouse plasma, oral gavage 6-60 mg/kg, six hours; for EPO: human EPO ELISA kit (*)
Procedure: (§3) In another series of experiments, male Swiss Webster mice (29-34 g) were administered various compounds of the present invention via oral gavage using a ball-tipped gavage needle. Animals treated by oral gavage received a 4-10 ml/kg volume of either 0.5% carboxymethyl cellulose with or without 0.1% Polysorbate 80 (vehicle control) or various doses (6-60 mg/kg) of a compound of the present invention in 0.5% CMC, with or without 0.1% Polysorbate 80. Blood samples were collected and tissues were processed as described above. Six hours after injection, the animals were anesthetized and exsanguinated.
(§4) Plasma samples were collected in EDTA and heparin coated microtainer tubes. Plasma samples were assayed for erythropoietin and VEGF using commercially-available ELISA kits purchased from R & D Systems (Minneapolis Minn.).

[8] = tested on: VEGF; assay: Plasma VEGF in mice after oral gavage; type: in vivo, Swiss Webster mice; details: mouse plasma, oral gavage 6-60 mg/kg, six hours
Procedure: as §3, §4

[9] = compound given 4 hr after occlusion

Cc1nc2ccc(Oc3ccc4c(O)c(C(=O)NCC(=O)O)ncc4c3)cc2o1 [Compound N, {[4-Hydroxy-7-(2-methyl-benzooxazol-6-yloxy)-isoquinoline-3-carbonyl]-amino}-acetic acid]
Fold Increase Over Control [1]: 13.5 | EPO [1]: 89.9 mIU/ml | VEGF Fold Increase [2]: 4.6 | VEGF [2]: 6316 pg/mL | inhibition in vivo at up to 20 mg/kg ([3]; compound given 0 hr): 46% | fold induction at 20 mg/kg [4]: 2.28 | VEGF [4]: 66 pg/mL | EPO Fold Increase [5]: 14.52 | EPO [5]: 380.5 mIU/ml | fold induction at 20 mg/kg [6]: 70.2 | EPO ([6]; mouse EPO ELISA kit (**)): 63.2 pg/mL

CC(NC(=O)c1ncc2cc(Oc3ccccc3)ccc2c1O)C(=O)O (stereo not drawn) [Compound I, 2-[(4-Hydroxy-7-phenoxy-isoquinoline-3-carbonyl)-amino]-propionic acid]
EPO [1]: 41.0 mIU/ml | EPO Fold Increase [7]: 16.46 | EPO [7]: 21.4 mIU/ml | VEGF Fold Increase [2]: 7.2 | VEGF [2]: 2370.0 pg/mL | VEGF [8]: 62.7 pg/mL | VEGF Fold Increase [8]: 2.71 | fold induction at 20 mg/kg [4]: 2.13 | VEGF [4]: 77.8 pg/mL | EPO Fold Increase [5]: 3.4 | EPO [5]: 14.8 mIU/ml | fold induction at 20 mg/kg [6]: 155 | EPO ([6]; human EPO ELISA kit (*)): 62.1 mIU/ml

N#Cc1nc(C(=O)NCC(=O)O)c(O)c2cc(Oc3ccc4c(c3)CCO4)ccc12 [Compound AO, {[1-Cyano-6-(2,3-dihydro-benzofuran-5-yloxy)-4-hydroxy-isoquinoline-3-carbonyl]-amino}-acetic acid]
Fold Increase Over Control [1]: 83.4 | EPO [1]: 83.4 mIU/ml | VEGF Fold Increase [2]: 4.6 | VEGF [2]: 6653 pg/mL | inhibition in vivo at up to 20 mg/kg [3, 9]: 55% | fold induction at 20 mg/kg [4]: 0.97 | VEGF [4]: 38 pg/mL | EPO Fold Increase [5]: 19.55 | EPO [5]: 369.5 mIU/ml | fold induction at 20 mg/kg [6]: 92.8 | EPO ([6]; mouse EPO ELISA kit (**)): 12719 pg/mL

Cc1nc2ccc(Oc3ccc4c(O)c(C(=O)NCC(=O)O)nc(C)c4c3)cc2o1 [Compound AF, {[4-Hydroxy-1-methyl-7-(2-methyl-benzooxazol-6-yloxy)-isoquinoline-3-carbonyl]-amino}-acetic acid]
Fold Increase Over Control [1]: 15.3 | EPO [1]: 101.6 mIU/ml | VEGF Fold Increase [2]: 3.5 | VEGF [2]: 5124 pg/mL | inhibition in vivo at up to 20 mg/kg ([3]; compound given 0 hr): 21% | fold induction at 20 mg/kg [4]: 2.83 | VEGF [4]: 82 pg/mL | EPO Fold Increase [5]: 12.24 | EPO [5]: 231.3 mIU/ml | fold induction at 20 mg/kg [6]: 21.3 | EPO ([6]; mouse EPO ELISA kit (**)): 192 pg/mL

N#Cc1nc(C(=O)NCC(=O)O)c(O)c2cc(Oc3ccc4c(c3)OCO4)ccc12 [Compound AN, {[6-(Benzo[1,3]dioxol-5-yloxy)-1-cyano-4-hydroxy-isoquinoline-3-carbonyl]-amino}-acetic acid]
Fold Increase Over Control [1]: 16.2 | EPO [1]: 42.8 mIU/ml | VEGF Fold Increase [2]: 5.3 | VEGF [2]: 7252 pg/mL | inhibition in vivo at up to 20 mg/kg [3, 9]: 46% | fold induction at 20 mg/kg [4]: 1.05 | VEGF [4]: 39 pg/mL | EPO Fold Increase [5]: 13.28 | EPO [5]: 251 mIU/ml | fold induction at 20 mg/kg [6]: 26.2 | EPO ([6]; mouse EPO ELISA kit (**)): 14964 pg/mL

CC(NC(=O)c1ncc2cc(Sc3ccccc3)ccc2c1O)C(=O)O (stereo not drawn) [Compound Y, 2-[(4-Hydroxy-7-phenylsulfanyl-isoquinoline-3-carbonyl)-amino]-propionic acid]
EPO Fold Increase [7]: 8.85 | EPO [7]: 11.5 mIU/ml | VEGF [8]: 52.7 pg/mL | VEGF Fold Increase [8]: 2.28

N#Cc1nc(C(=O)NCC(=O)O)c(O)c2ccc(Oc3ccc(F)cc3)cc12 [Compound R, {[1-Cyano-7-(4-fluoro-phenoxy)-4-hydroxy-isoquinoline-3-carbonyl]-amino}-acetic acid]
Fold Increase Over Control [1]: 25.3 | EPO [1]: 49.1 mIU/ml | VEGF Fold Increase [2]: 7.4 | VEGF [2]: 2735 pg/mL | inhibition in vivo at up to 20 mg/kg ([3]; compound given 0 hr): 32% | fold induction at 20 mg/kg [4]: 1.38 | VEGF [4]: 54 pg/mL | EPO Fold Increase [5]: 19.71 | EPO [5]: 372.6 mIU/ml | fold induction at 20 mg/kg [6]: 52.4 | EPO ([6]; mouse EPO ELISA kit (**)): 555.5 pg/mL
